Consider 1 molecule from article PMC2705510, “Measurement of Nanomolar Dissociation Constants by Titration Calorimetry and Thermal Shift Assay – Radicicol Binding to Hsp90 and Ethoxzolamide Binding to CAII” (2009).

As usually defined, the Kd is the constant that tells how readily two partners part at equilibrium. Low readings indicate higher affinity, high ones lower affinity.

In this assay the target is T1, Hsp90αN (N-terminal domain of human Hsp90α) (Homo sapiens, UniProt P07900).
T1 construct: gene HSP90AA1; N-terminal domain, amino acids 3–241, N-terminal His6 tag
As to the kind of experiment: ITC; weak ligand displaced by radicicol (association constant Kb given). It is filed as binding. On the technique in general: Isothermal titration calorimetry measures the heat released or taken up as one component is titrated into another.

The molecule `COCCOC(=O)c1ccc(O)cc1O` [compound 1] gave a Kd of 50 µM.
